Test results published in PMC7925099, “Identification of an Antiretroviral Small Molecule That Appears To Be a Host-Targeting Inhibitor of HIV-1 Assembly” (Journal of Virology, 2021).

Legend:
in vitro [1] = conditions: cat
Experimental: (§1) For each viral inhibition assay, a cytotoxicity assay was performed in parallel on uninfected cells by adding 1/10 volume of alamarBlue (Thermo Fisher, Waltham, MA; DAL1199) to the plates, followed by thorough mixing. AlamarBlue-treated plates were incubated for 2 to 3 h at 37°C (the timing was optimized for the linear signal), mixed well, and read using a fluorescence plate reader with 560 nm and 590 nm as the excitation and emission settings, respectively (Synergy H1; BioTek Instruments, Inc.).
(§2) EC50 and CC50 values were determined in Excel using four-parameter logistic regression analysis of dose-response data generated from the viral inhibition or cytotoxicity assays, respectively. […] Average EC50 and CC50 values were calculated using the geometric mean and average values were reported with the geometric standard deviation (GSD).

HIV-1 NL4-3 RLuc = assay: MT-2 spreading infection assay (inhibition of HIV-1 replication); conditions: for EC50: Human immunodeficiency virus 1, NL43, T-cell, 96 h, read-out: EC50 for inhibition of HIV-1 replication; for SI (CC50/EC50): from average values
Experimental: Inhibition of HIV-1 viral replication was assayed in a spreading infection using MT-2 cells and NL4-3 RLuc reporter virus. For dose-response curves, compounds were initially diluted with DMSO to 100-fold the starting concentration in a 96-well plate and subjected to a series of 3-fold dilutions in DMSO for a total of eight or nine dilutions. If a single compound concentration was tested, the compound was diluted to 100-fold the desired concentration in DMSO. Compounds were then diluted 50-fold with infection media prepared by diluting NL4-3 RLuc virus stock to 400 IU/100 μl with complete RPMI. Then, 100 μl of 50-fold-diluted compound was transferred to 20,000 MT-2 cells that were preseeded in 96-well plates in 100 μl of complete RPMI for a final volume of 200 μl, followed by incubation at 37°C for 96 h. The final MOI in infected plates was 0.02, and the final DMSO concentration in all wells was 1%. All assays were run with three replicates. For each replicate, one well received DMSO only, and one well received medium only for normalization and background correction. […] Plates were read on a luminescence plate reader (Synergy H1; BioTek Instruments, Inc.).
as §2

in vitro [2] = format: cell-based; conditions: human
MT-2 cells [3] = system: MT-2 cells
Experimental: as §1, §2

[4] = system: HIV-1 (chronically infected H9 T cells, H9-HIV); assay: Inhibition of HIV-1 late events: infectious virus production by H9-HIV cells; format: cell-based; conditions: Human immunodeficiency virus 1, 48 h, titered on TZM-bl cells, read-out: EC50INF (inhibition of infectivity of culture supernatant)
Experimental: For these experiments, we used H9-HIV, a chronically infected H9 T cell line. Compounds were diluted as described under MT-2 spreading infection above. […] To measure inhibition of virus production (Fig. 3B, blue graph and blot), PEG pelleted virus (harvested as described in “Virus pelleting” above) was analyzed by WB with αGag.

[5] = system: influenza A virus WSN/33 (H1N1) (FLUV); format: cell-based
[6] = system: HIV-1 (chronically infected H9 T cells, H9-HIV); assay: Inhibition of HIV-1 late events: virus production (αGag WB of pelleted virus); format: cell-based; conditions: Human immunodeficiency virus 1, T-cell
in vitro [7] = conditions: human, CC50
Experimental: as §1, §2

[8] = system: HIV-1 LAI pro– Δenv (pseudotyped with HIV-1 NL4-3 Env); assay: MT-2 acute infection assay (VLP, intracellular Gag, assembly intermediates); conditions: MT-2 cells
Experimental: For Fig. 3B, culture supernatants were collected at 48 h, and virus was pelleted by adding 75 μl of 17% PEG 6000–0.8 M NaCl–PBS to 75 μl of medium from the assay in a 96-well V-bottom polypropylene plate. PEG and media were incubated on ice for 2 h or overnight at 4°C. Virus was pelleted at 1,847 × g for 30 min at 4°C in the plate in an Allegra centrifuge (Beckman), and the pellet was resuspended in 50 μl of loading buffer with dithiothreitol for analysis by WB with αGag. For Fig. 4, culture supernatants were collected at 48 h postinfection and filtered through a 0.45-μm PES syringe filter to remove any remaining cells. Virus-like particles were centrifuged through a 30% (wt/vol) sucrose-PBS cushion at 130,000 × g, 30 min, and 4°C in an SW55Ti rotor (Beckman), and the virus pellet was harvested for analysis by WB with αGag.
MT-2 cells were diluted to 2 × 10^6 cells/ml with complete RPMI and bulk infected at an MOI of 1 for 2 h at 37°C. Compound was diluted 100-fold to the final required concentration with DMSO. The compound dilutions and DMSO-only controls were then further diluted 50-fold with complete RPMI, and 1 ml of the dilutions was added per well in a 12-well plate. Bulk-infected cells were then washed and adjusted to 0.5 × 10^6 cells/ml, and 1 ml of infected cells was added to each well containing diluted compound or DMSO. At 48 h, the medium was collected for virus pelleting as described above, and the cells were washed and lysed (see “Cell lysis” below).
MT-2 cells were collected and washed three times by pelleting at 200 × g for 5 min at 4°C in an Allegra centrifuge (Beckman) and resuspending cells in ice-cold PBS. Cell pellets were lysed with 250 μl lysis buffer (20 mM HEPES [pH 7.9], 14 mM potassium acetate, 1 mM MgCl2, 0.3% NP-40), followed by shearing 20× with a 20-gauge needle. Cell lysate was then clarified 200 × g for 10 min at 4°C in an Allegra centrifuge (Beckman). The supernatant was transferred to a fresh tube and further clarified by centrifugation at 18,000 × g for 10 min at 4°C in a Microfuge (Beckman), and the supernatant was transferred to a fresh tube.
To prepare gradients, 10, 15, 40, 50, 60, 70, and 80% (wt/vol) sucrose solutions were prepared with water, and then each was diluted 1/10 with a 10× stock of the lysis buffer used to harvest cells (see “Cell lysis”). For each gradient, ∼100 μl of cell lysate (∼100 μg of total protein) was layered on a 5-ml step gradient containing equivalent layers of each diluted sucrose solution prepared and subjected to velocity sedimentation in a Beckman MLS-50 rotor 217,000 × g for 45 min at 4°C. Gradients were fractionated from top to bottom, and pelleted material was harvested for WB. Aliquots of fractions and pellet were analyzed by SDS-PAGE, followed by WB with αGag.

[9] = Cytotoxicity assay on SupT1.CCR5 cells; conditions: human, SupT1.CCR5 cells (uninfected)
Experimental: as §1, §2

FIV 34TF10 = assay: FIV inhibition assay (spreading infection, RT activity); format: cell-based, feline immunodeficiency virus
Experimental: G355-5 cells were transfected in six-well plates, and each well was transfected with 2 μg per well of FIV 34TF10 ORFA+ proviral plasmid. At 24 h posttransfection, the cells were washed, and the medium was replaced with 4 ml of complete McCoy 5A. At 144 h posttransfection, the medium was filtered using a 0.45-μm syringe filter, aliquoted, and stored at −80°C. The reverse transcriptase (RT) activity in media from FIV or mock-transfected cells was estimated using SG-PERT ([94]). A set of recombinant RT standards (EMD Millipore, Molsheim, France; catalog no. 382129) ranging from 5.12E3 to 5.12E9 nU/ml was used to estimate the nU/ml of RT activity in the FIV stock.
Inhibition of FIV spreading infection was assayed using G355-5 cells, seeded on the prior day at 8,000 cells/well in a 96-well plate.

HIV-1 NL4-3 [10] = format: cell-based; conditions: MT-2 cells, 37 weeks of selection
PBMCs = conditions: human
Experimental: as §1, §2

HIV-1 NL4-3 [11] = assay: PBMC spreading infection assay; format: cell-based
Experimental: Thawed, unstimulated PBMCs (BenTech, Seattle, WA) were pelleted by centrifugation 228 × g for 8 min in an Allegra centrifuge (Beckman, Brea, CA). Pellets were resuspended in activation medium containing RPMI supplemented with 21 ng/ml human interleukin-2 (IL-2; […] Remel, San Diego, CA; R30852801), 10% FBS, and 1% penicillin-streptomycin, at a density of 2 × 10^6 cells/ml. After a 3-day incubation, the cells were collected and resuspended in RPMI with 20% FBS and 10% DMSO and then frozen as 50 × 10^6 cells per vial. […] Compound dilutions were prepared in complete PBMC medium as described above, but without virus, and 100 μl of diluted compound was transferred to 96-well U-bottom plates. Bulk-infected cells were pelleted and resuspended in complete PBMC medium at 1 × 10^6 cells/ml, and 100 μl of cell suspension was transferred to each well at 100,000 cells per well with diluted compound. After 96 h, the medium was collected for relative infectivity measurements as for the SupT1.CCR5 spreading infection assay.

MT-2 cells [12] = assay: Cytotoxicity assay (alamarBlue) on uninfected MT-2 T cells; conditions: uninfected MT-2 cells
Experimental: as §1, §2

For `COc1cc(C)c(/C=C/C2NCCc3cc(OCc4ccccc4)c(OC)cc32)cc1OCc1ccccc1` (stereo not drawn) [PAV-117], the CC50 (in vitro [1]) was 1100 nM, the EC50 (HIV-1 NL4-3 RLuc) was 48 nM and the “SI (CC50/EC50)” value (HIV-1 NL4-3 RLuc; MT-2 cells) was 14. The “selectivity index (CC50/EC50)” value (HIV-1 NL4-3 RLuc; MT-2 cells, from the shown dose-response curve) was 21, the CC50 (in vitro [2]) was 1600 nM and the “CC50 (μM)” value (MT-2 cells [3]) was 1.4 ×/÷ 1.5 μM. The CC50 (MT-2 cells [3]; human) was 1100 nM, the EC50 [4] was 104 nM and the “activity against FLUV (infectious titer)” value [5] was “not active”. For the same molecule, the inhibition at 0.002 µM ([6]; 2 nM, H9-HIV, WB of virus pellets, read-out: % inhibition of virus production (relative to DMSO)) was 2%, the inhibition at 0.005 µM ([6]; 5 nM, H9-HIV, WB of virus pellets, read-out: % inhibition of virus production (relative to DMSO)) was 7% and the inhibition at 0.016 µM ([6]; 16 nM, H9-HIV, WB of virus pellets, read-out: % inhibition of virus production (relative to DMSO)) was 7%. The inhibition at 0.049 µM ([6]; 49 nM, H9-HIV, WB of virus pellets, read-out: % inhibition of virus production (relative to DMSO)) was 31%, the inhibition at 0.148 µM ([6]; 148 nM, H9-HIV, WB of virus pellets, read-out: % inhibition of virus production (relative to DMSO)) was 48% and the inhibition at 0.444 µM ([6]; 444 nM, H9-HIV, WB of virus pellets, read-out: % inhibition of virus production (relative to DMSO)) was 86%. It also gave an inhibition at 1.333 µM ([6]; 1333 nM, H9-HIV, WB of virus pellets, read-out: % inhibition of virus production (relative to DMSO)) of 92%, an inhibition at 4 µM ([6]; 4000 nM, H9-HIV, WB of virus pellets, read-out: % inhibition of virus production (relative to DMSO)) of 96% and an inhibition at 10 µM ([6]; 10000 nM, H9-HIV, WB of virus pellets, read-out: % inhibition of virus production (relative to DMSO)) of 92%. For the same molecule, the EC50 ([6]; H9-HIV cells, 48 h, αGag WB, read-out: EC50VLP (inhibition of virus production, p24 Gag in virus pellets)) was 113 nM, the CC50 (in vitro [7]) was 1000 nM and the “∼EC70 (treatment concentration)” value ([8]; 48 h treatment) was ~0.25 nM. The “steady-state levels of actin and GAPDH” value ([8]; 48 h) was “minimally affected”, the “steady-state level of the ∼500S intermediate as a percentage of total Gag” value ([8]; 48 h, velocity sedimentation) was “dose-dependent decrease” and the “VLP release into the supernatant” value ([8]; protease-deficient provirus, 48 h) was “dose-dependent reduction”. For the same molecule, the “steady-state intracellular p55 Gag levels” value ([8]; highest PAV-117 concentration tested, 48 h) was “some reduction”, the CC50 [9] was 1100 nM and the EC50 (FIV 34TF10; Feline immunodeficiency virus, feline G355-5 cells, FIV 34TF10, 144 h, RT activity, read-out: EC50 for inhibition of FIV replication) was 595 nM. The “fold by which FIV EC50 is lower than CC50 in G355-5 cells” value (FIV 34TF10; G355-5 cells) was < 2 fold.

With `COc1cc(C)c(/C=C/C2NCCc3cc(OCc4ccccc4)c(OC)cc32)cc1OC` (stereo not drawn) [PAV-206] the EC50 (HIV-1 NL4-3 RLuc) was 34 nM, the “SI (CC50/EC50)” value (HIV-1 NL4-3 RLuc; MT-2 cells) was 61 and the “resistance level reached: compound concentration allowing virus replication, fold higher than the EC50” value (HIV-1 NL4-3 [10]) was 8 fold. For the same molecule, the CC50PBMC (PBMCs) was 3591 nM, the “CC50 (μM)” value (MT-2 cells [3]) was 2.2 ×/÷ 1.4 μM and the selectivity index (HIV-1 NL4-3 [11]; HIV-1-infected PBMCs) was 48. It also gave an EC50 (HIV-1 NL4-3 [11]; Human immunodeficiency virus 1, NL43, PBMC, PHA-activated PBMCs, HIV-1 NL4-3, MOI 0.008, 96 h) of 75 nM and a CC50MT-2 (MT-2 cells [12]) of 2811 nM.
